The text below walks through data of US9371527B2, “Compositions and methods related to protein displacement therapy for myotonic distrophy” (University of Rochester, priority 2006, dated 2016).

The structures appear in SMILES notation.

The experiment has as its system interaction of CUG repeat RNA with recombinant MBNL1 protein (MBNL1-PL). In words: Beta-galactosidase enzymatic complementation assay. It counts as binding, human. The note with it: (CUG)109 tethered to streptavidin plate. As for the experimental part:
FIGS. 33A and 33B. […] (CUG)109 transcripts are tethered to the surface of a streptavidin-coated microtiter plate using a capture oligonucleotide that is biotinylated. The capture oligo anneals to complementary sequence at the 3′ end of the CUG repeat RNA. Recombinant human MBNL1 is expressed as a fusion with the PL fragment of beta-galactosidase. PL is a 55 amino acid fragment of beta-galactosidase. […] After incubation with test compound, unbound MBNL1-PL is washed away (FIG. 33B). Next, the complementing fragment of beta-galactosidase is added to determine the amount of MBNL1-PL that continues to interact with (CUG)109 RNA and thereby is retained on the microtiter plate. The binding of complementing fragment of beta-galactosidase to PL reconstitutes its enzymatic activity. This activity is then determined by adding substrate to provide a fluorescence or chemiluminescence signal from active beta-galactosidase. […]
(CUG)109 transcripts are tethered to the surface of a streptavidin-coated microtiter plate using a capture oligonucleotide that is biotinylated. […] Recombinant human MBNL1 is expressed as a fusion with the PL fragment of beta-galactosidase. […] This activity is then determined by adding substrate to provide a fluorescence or chemiluminescence signal from active beta-galactosidase. […]

`CCCN(CCCN(C)C)c1cc(/C=C2/Sc3ccccc3N2C)c2ccccc2[n+]1-c1ccccc1` [SybrGreen]: the “amount of MBNL1-PL retained on plate (beta-galactosidase activity)” value is reported as “reduce the amount of MBNL1-PL retained on plate”.
